Source: paper PMC2963127, “Genotoxicity Revaluation of Three Commercial Nitroheterocyclic Drugs: Nifurtimox, Benznidazole, and Metronidazole” (Journal of Parasitology Research, 2009)
Where two headings read alike, the source gives them in different places. Marks after values point to notes of the source that are not given here.

Tests used:
[1] = system: Salmonella typhimurium TA98; details: for Revertant/plate: TA98 without S9; for Specific mutagenic activity (revertant increase/dose unit): linear regression
human lymphocytes = experiment: Micronucleus (MN) assay, cytokinesis block; assay type: cell-based
Experimental: The MN assay was performed using blood samples from healthy, nonsmoking males, as provided by the AVIS (Italian Association of Voluntary Blood Donors). […] Cytochalasin-B was added 44 hours after the start of incubation at a final concentration of 6 μg/mL; at 48 hours, the lymphocytes were treated with the different drugs. […] Each treatment was tested with cells from two donors, performed in duplicate separate cultures (i.e., four cultures were set up for each treatment). After incubation, the lymphocytes were collected and resuspended in a mild hypotonic solution (0.075 M KCl) and then added with an ice-cold 5 : 3 acetic acid : methanol solution. After centrifugation (500 g, 10 min), the pellets were resuspended in cold (-20°C) methanol and maintained at -20°C (at least 24 hours). […] Scoring was done using an […] (Munich, Germany) light microscope at 1000X magnification. […] NDI data were analyzed by Student's t-test.

[2] = system: Salmonella typhimurium TA100; details: for Specific mutagenic activity (revertant increase/dose unit): linear regression; for Revertant/plate: TA100 without S9
human leukocytes [3] = experiment: Modified comet assay with ENDOIII for oxidised bases; details: 37°C, 1 hour
Experimental: Oxidatively generated damage can be evaluated easily by comparing the DNA migration in enzyme-or buffer-treated samples. The comet assay, with the modification of an extra step after lysis in which DNA is digested with the repair enzyme, was performed according to Collins et al. […] ENDOIII was isolated from bacteria containing over-producing plasmids (Collin's Laboratory, Rowett Research Institute, Bucksburn, Aberdeen, UK). The enzyme-treated gels reveal alkali labile sites and strand breaks (ALS/SB) and oxidised bases (ALS/SB + OX). Assuming a linear dose response, subtraction of (ALS/SB) from (ALS/SB + OX) gives a measure of oxidised bases. The SPSS 11 statistical package was used to analyse statistical differences between samples. Statistical differences between controls and treated samples were first determined with the nonparametric Wilcoxon rank-sum test for each experiment. The mean values from the repeated experiments were used in a one-way analysis of variance. Analysis of variance was followed by single or multiple pairwise comparisons. Data were tested for normality and homogeneity of variance. When these criteria were met, the data were compared using Dunnett's version of the t-test.

[4] = system: immortalized lymphocytes (Epstein-Barr virus lymphoblastoid cell line); experiment: Long-term exposure cytotoxicity assay (MTS); assay type: cell-based, human; details: 48 hours treatment
human leukocytes [5] = assay type: cell-based; details: 1 hour treatment, measured immediately after exposure; NFX 0–348 μM, BNZ 0–348 μM, MTZ 0–585 μM
[6] = therapeutically treated patients; no reference given; cited from earlier work

Molecule: O=[N+]([O-])c1ccc2c(c1)Cc1ccccc1-2 [2-NF, 2-nitrofluorene]
- Revertant/plate ([1]; 15 μg/plate): 169 ± 7

Molecule: O=C(Cn1ccnc1[N+](=O)[O-])NCc1ccccc1 [BNZ, N-benzyl-2-(2-nitroimidazol-1-yl)acetamide]
- Revertants ([1]; TA98 +S9, 5 µg/plate): 20± 2
- Revertants ([1]; TA98 +S9, 10 µg/plate): 18± 2
- Revertants ([1]; TA98 +S9, 20 µg/plate): 22± 8
- Revertants ([1]; TA98 +S9, 40 µg/plate): 24± 5
- Revertants ([1]; TA98 +S9, 80 µg/plate): 23± 4
- Revertants ([1]; TA98 +S9, 125 µg/plate): 34± 2
- Revertants ([1]; TA98 +S9, 250 µg/plate): 43± 9
- Revertants ([1]; TA98 +S9, 500 µg/plate): 44± 6
- Revertants ([1]; TA98 -S9, 5 µg/plate): 10± 2
- Revertants ([1]; TA98 -S9, 10 µg/plate): 16± 4
- Revertants ([1]; TA98 -S9, 20 µg/plate): 14± 6
- Revertants ([1]; TA98 -S9, 40 µg/plate): 15± 1
- Revertants ([1]; TA98 -S9, 80 µg/plate): 14± 2
- Revertants ([1]; TA98 -S9, 125 µg/plate): 26± 3
- Revertants ([1]; TA98 -S9, 250 µg/plate): 39± 3
- Revertants ([1]; TA98 -S9, 500 µg/plate): 45± 5
- Specific mutagenic activity (revertant increase/dose unit) ([1]; TA98 with S9 mix): 0.10 (0.93)
- Specific mutagenic activity (revertant increase/dose unit) ([1]; TA98 without S9 mix): 0.07 (0.88)
- Effect on MN frequency (human lymphocytes; 24-hours treated lymphocytes): did not alter MN frequency
- MN (human lymphocytes; 24h, 3.8 µM): 4.0± 0.5 x10-3 BN
- NDI (human lymphocytes; 24h, 3.8 µM): 1.97± 0.11
- NDI (%) (human lymphocytes; 24h, 3.8 µM): 94± 5%
- MN (human lymphocytes; 24h, 7.7 µM): 3.5± 1.0 x10-3 BN
- NDI (human lymphocytes; 24h, 7.7 µM): 1.97± 0.07
- NDI (%) (human lymphocytes; 24h, 7.7 µM): 94± 3%
- MN (human lymphocytes; 24h, 15.4 µM): 2.5± 0.5 x10-3 BN
- NDI (human lymphocytes; 24h, 15.4 µM): 2.00± 0.06
- NDI (%) (human lymphocytes; 24h, 15.4 µM): 95± 3%
- MN (human lymphocytes; 24h, 30.7 µM): 4.5± 1.0 x10-3 BN
- NDI (%) (human lymphocytes; 24h, 30.7 µM): 97± 2%
- MN (human lymphocytes; 24h, 61.5 µM): 3.5± 0.5 x10-3 BN
- NDI (human lymphocytes; 24h, 61.5 µM): 1.99± 0.07
- NDI (%) (human lymphocytes; 24h, 61.5 µM): 95± 3%
- MN (human lymphocytes; 24h, 96.1 µM): 3.0± 0.5 x10-3 BN
- NDI (human lymphocytes; 24h, 96.1 µM): 2.01± 0.03
- NDI (%) (human lymphocytes; 24h, 96.1 µM): 96± 1%
- MN (human lymphocytes; 24h, 192.1 µM): 5.0± 1.0 x10-3 BN
- NDI (human lymphocytes; 24h, 192.1 µM): 2.07± 0.07
- NDI (%) (human lymphocytes; 24h, 192.1 µM): 99± 3%
- MN (human lymphocytes; 24h, 384.2 µM): 3.5± 0.5 x10-3 BN
- NDI (%) (human lymphocytes; 24h, 384.2 µM): 97± 5%
- Effect on MN frequency (human lymphocytes; 72 hours treated lymphocytes): increase of MN frequency
- Effect on nuclear division (NDI) (human lymphocytes; 72 hours treated lymphocytes): without some decrease of nuclear division
- MN (human lymphocytes; 72 hours, 3.8 μM): 3.5 ± 1.0 ×10^−3 BN
- NDI (human lymphocytes; 72 hours, 3.8 μM): 1.93 ± 0.11
- NDI (%) (human lymphocytes; 72 hours, 3.8 μM): 100 ± 6%
- MN (human lymphocytes; 72 hours, 7.7 μM): 4.0 ± 1.0 ×10^−3 BN
- NDI (human lymphocytes; 72 hours, 7.7 μM): 2.00 ± 0.07
- NDI (%) (human lymphocytes; 72 hours, 7.7 μM): 104 ± 4%
- MN (human lymphocytes; 72 hours, 15.4 μM): 4.0 ± 1.5 ×10^−3 BN
- NDI (human lymphocytes; 72 hours, 15.4 μM): 1.98 ± 0.06
- NDI (%) (human lymphocytes; 72 hours, 15.4 μM): 102 ± 3%
- MN (human lymphocytes; 72 hours, 30.7 μM): 3.5 ± 1.0 ×10^−3 BN
- NDI (human lymphocytes; 72 hours, 30.7 μM): 1.99 ± 0.05
- NDI (%) (human lymphocytes; 72 hours, 30.7 μM): 103 ± 3%
- MN (human lymphocytes; 72 hours, 61.5 μM): 3.0 ± 0.5 ×10^−3 BN
- NDI (human lymphocytes; 72 hours, 61.5 μM): 2.06 ± 0.07
- NDI (%) (human lymphocytes; 72 hours, 61.5 μM): 107 ± 4%
- MN (human lymphocytes; 72 hours, 96.1 μM): 9.0 ± 0.5 ×10^−3 BN
- NDI (human lymphocytes; 72 hours, 96.1 μM): 2.05 ± 0.03
- NDI (%) (human lymphocytes; 72 hours, 96.1 μM): 106 ± 2%
- MN (human lymphocytes; 72 hours, 192.1 μM): 13.0 ± 1.0^b ×10^−3 BN
- NDI (human lymphocytes; 72 hours, 192.1 μM): 2.00 ± 0.07
- NDI (%) (human lymphocytes; 72 hours, 192.1 μM): 104 ± 4%
- MN (human lymphocytes; 72 hours, 384.2 μM): 16.5 ± 0.5^b ×10^−3 BN
- NDI (human lymphocytes; 72 hours, 384.2 μM): 1.93 ± 0.10
- NDI (%) (human lymphocytes; 72 hours, 384.2 μM): 100 ± 6%
- Lowest effective dose / concentration significantly increasing the revertant number ([2]; TA100): 5 µg/mL
- Revertants ([2]; TA100 +S9, 5 µg/plate): 406± 13
- Revertants ([2]; TA100 +S9, 10 µg/plate): 811± 55
- Revertants ([2]; TA100 +S9, 20 µg/plate): 1445± 85
- Revertants ([2]; TA100 +S9, 40 µg/plate): 3117± 169
- Revertants ([2]; TA100 +S9, 80 µg/plate): 4901± 166
- Revertants ([2]; TA100 -S9, 5 µg/plate): 498± 25
- Revertants ([2]; TA100 -S9, 10 µg/plate): 943± 27
- Revertants ([2]; TA100 -S9, 20 µg/plate): 1801± 67
- Revertants ([2]; TA100 -S9, 40 µg/plate): 3344± 104
- Revertants ([2]; TA100 -S9, 80 µg/plate): 5287± 81
- Specific mutagenic activity (revertant increase/dose unit) ([2]; TA100 with S9 mix): 60.92 (0.98)
- Specific mutagenic activity (revertant increase/dose unit) ([2]; TA100 without S9 mix): 64.96 (0.98)
- Specific genotoxic activity, DNA migration/dose unit (II: comet assay modified with ENDOIII, DNA oxidative damage) (human leukocytes [3]): 0.9077 (r ^2 = 0.8351) μm/μM
- Cytotoxic effect on cultured lymphocytes [4]: did not show any significant effects
- Cellular survival rate (human leukocytes [5]): did not appear to be affected

Molecule: NC(=O)C(=Cc1ccc([N+](=O)[O-])o1)c1ccco1 [FYFA, 2-(2-furyl)-3-(5-nitro-2-furyl)acrylamide]
- Revertant/plate ([1]; 20 ng/plate): 189 ± 16
- Revertant/plate ([2]; 20 ng/plate): 1133 ± 70

Molecule: CCN(CC)CCNc1ccc(CO)c2sc3ccccc3c(=O)c12 [HYC, hycantone]
- Revertant/plate ([1]; positive control 75 μg/plate): 870 ± 90
- Revertant/plate ([2]; positive control 75 μg/plate): 968 ± 103

Molecule: Cc1ncc([N+](=O)[O-])n1CCO [MTZ, 2-(2-methyl-5-nitro-1H-imidazol-1-yl)ethanol]
- NDI (human lymphocytes; 24h, 5.9 µM): 1.97± 0.07
- NDI (%) (human lymphocytes; 24h, 5.9 µM): 100± 4%
- NDI (human lymphocytes; 24h, 11.7 µM): 1.97± 0.05
- NDI (%) (human lymphocytes; 24h, 11.7 µM): 100± 3%
- NDI (human lymphocytes; 24h, 46.8 µM): 2.01± 0.10
- NDI (%) (human lymphocytes; 24h, 46.8 µM): 102± 5%
- NDI (human lymphocytes; 24h, 93.6 µM): 1.99± 0.04
- NDI (%) (human lymphocytes; 24h, 93.6 µM): 101± 2%
- NDI (human lymphocytes; 24h, 146.2 µM): 1.97± 0.10
- NDI (%) (human lymphocytes; 24h, 146.2 µM): 100± 5%
- NDI (human lymphocytes; 24h, 292.4 µM): 2.01± 0.03
- NDI (%) (human lymphocytes; 24h, 292.4 µM): 102± 2%
- NDI (human lymphocytes; 24h, 584.8 µM): 1.94± 0.06
- NDI (%) (human lymphocytes; 24h, 584.8 µM): 98± 3%
- NDI (human lymphocytes; 72h, 2.9 µM): 1.74± 0.11
- NDI (%) (human lymphocytes; 72h, 2.9 µM): 100± 6%
- NDI (human lymphocytes; 72h, 5.9 µM): 1.75± 0.17
- NDI (%) (human lymphocytes; 72h, 5.9 µM): 101± 10%
- NDI (human lymphocytes; 72h, 11.7 µM): 1.74± 0.10
- NDI (%) (human lymphocytes; 72h, 11.7 µM): 100± 6%
- NDI (human lymphocytes; 72h, 46.8 µM): 1.81± 0.09
- NDI (human lymphocytes; 72h, 93.6 µM): 1.73± 0.08
- NDI (%) (human lymphocytes; 72h, 93.6 µM): 100± 5%
- NDI (human lymphocytes; 72h, 146.2 µM): 1.84± 0.11
- NDI (%) (human lymphocytes; 72h, 146.2 µM): 106±6%
- NDI (human lymphocytes; 72h, 292.4 µM): 1.76± 0.07
- NDI (%) (human lymphocytes; 72h, 292.4 µM): 102± 4%
- NDI (human lymphocytes; 72h, 584.8 µM): 1.74± 0.12
- NDI (%) (human lymphocytes; 72h, 584.8 µM): 100± 7%
- Effect on nuclear division (NDI) (human lymphocytes; 72 hours treated lymphocytes): did not induce any alteration
- Plasmatic concentration in treated patients [6]: 8 to 13 µg/mL
- Cytotoxic effect on cultured lymphocytes [4]: did not show any significant effects

Molecule: CCOS(C)(=O)=O [ethyl methane sulfonate]
- MN frequency in binucleated cells (human lymphocytes; male, human, 24 h, 1 μM): 15.0 ± 2.8 ×10^−3 BN
- MN frequency in binucleated cells (human lymphocytes; male, human, 24 h, 120 µg/ml): 15.0± 2.8 x10-3 BN

Molecule: bleomycin
- MN frequency in binucleated cells (human lymphocytes; positive control, 6µg/ml): 26.0± 4.0 x10-3 BN
